This note sets out measurements from patent US11117947B2, “Double-acylated GLP-1 derivatives” (Novo Nordisk A/S, priority 2011, dated 2021).

Like-named read-outs stand apart in the source and are kept apart here. Numbered stars: 1 amine (or outer) side, 2 acyl side, 3 side chain; on linkers, the order of the positions; unused ones are H or OH. Side chains are listed from the residue outwards. Peptide text beside a SMILES is read from it. * marks the point of attachment. Decanoyl(10-(4-HOOC-PhO)) = O=C(O)c1ccc(OCCCCCCCCCC(=O)*)cc1; γGlu = O=C(O)[C@H](CCC(=O)[*:2])N[*:1]; C14 diacid = O=C(O)CCCCCCCCCCCCC(=O)*; AEEA = NCCOCCOCC(=O)O Bounds are passed on as bounds.

This experiment deals with T1, human GLP-1 receptor (Homo sapiens, UniProt P43220).
T1 construct: expressed in transfected cells; membranes
As to the kind of experiment: GLP-1 receptor binding: displacement of 125I-GLP-1 (SPA) at low and high albumin. As for the experimental part:
The purpose of this experiment is to investigate the binding to the GLP-1 receptor of the GLP-1 derivatives, and how the binding is potentially influenced by the presence of albumin. This is done in an in vitro experiment as described below.
In order to test the binding of the derivatives to albumin, the assay was performed with a low concentration of albumin (0.001%—corresponding to the residual amount thereof in the tracer), as well as with a high concentration of albumin (2.0% added). A shift in the binding affinity, IC50, is an indication that the peptide in question binds to albumin, and thereby a prediction of a potential protracted pharmacokinetic profile of the peptide in question in animal models.
Species (in vitro): Hamster
Biological End Point: Receptor Binding
A stable transfected cell line and a high expressing clone were selected for screening. The cells were grown at 5% CO2 in DMEM, 10% FCS, 1% Pen/Strep (Penicillin/Streptomycin) and 1.0 mg/ml of the selection marker G418.
The cells (approx. 80% confluence) were washed twice in PBS and harvested with Versene (aqueous solution of the tetrasodium salt of ethylenediaminetetraacetic acid), following which they were separated by centrifugation at 1000 rpm for 5 min. The cells/cell pellet must be kept on ice to the extent possible in the subsequent steps. The cell pellet was homogenised with Ultrathurrax for 20-30 seconds in a suitable amount of Buffer 1 (depending on the amount of cells, but e.g. 10 ml). The homogenate was centrifuged at 20000 rpm for 15 minutes. The pellet was resuspended (homogenised) in 10 ml Buffer 2 and re-centrifuged. This step was repeated once more. The resulting pellet was resuspended in Buffer 2, and the protein concentration was determined. The membranes were stored at minus 80° C.
Buffer 1: 20 mM Na-HEPES+10 mM EDTA, pH 7.4
Buffer 2: 20 mM Na-HEPES+0.1 mM EDTA, pH 7.4
Test compounds, membranes, SPA-particles and [^125I]-GLP-1(7-36)NH2 were diluted in assay buffer. 50 ul (micro liter) HSA (“high albumin” experiment containing 2% HSA), or buffer (“low albumin” experiment containing 0.001% HSA), was added to Optiplate, and 25 ul of test compounds were added. 5-10 ug membrane protein/sample was added (50 ul) corresponding to 0.1-0.2 mg protein/ml (to be preferably optimised for each membrane preparation). SPA-particles (Wheatgerm agglutinin SPA beads, Perkin Elmer, #RPNQ0001) were added in an amount of 0.5 mg/well (50 ul). The incubation was started with [^125I]-GLP-1]-(7-36)NH2 (final concentration 0.06 nM corresponding to 49.880 DPM, 25 ul). The plates were sealed with PlateSealer and incubated for 120 minutes at 30° C. while shaking. The plates were centrifuged (1500 rpm, 10 min) and counted in Topcounter.
Background: In a radioligand displacement assay an active substance lowers the binding of a labelled ligand.

Setting [1] is: low albumin, 0.001% HSA, read-out: IC50/nM (low HSA).
Where [2] appears, read: high albumin, 2.0% HSA, read-out: IC50/nM (high HSA).

T1 sequence (P43220 24-463): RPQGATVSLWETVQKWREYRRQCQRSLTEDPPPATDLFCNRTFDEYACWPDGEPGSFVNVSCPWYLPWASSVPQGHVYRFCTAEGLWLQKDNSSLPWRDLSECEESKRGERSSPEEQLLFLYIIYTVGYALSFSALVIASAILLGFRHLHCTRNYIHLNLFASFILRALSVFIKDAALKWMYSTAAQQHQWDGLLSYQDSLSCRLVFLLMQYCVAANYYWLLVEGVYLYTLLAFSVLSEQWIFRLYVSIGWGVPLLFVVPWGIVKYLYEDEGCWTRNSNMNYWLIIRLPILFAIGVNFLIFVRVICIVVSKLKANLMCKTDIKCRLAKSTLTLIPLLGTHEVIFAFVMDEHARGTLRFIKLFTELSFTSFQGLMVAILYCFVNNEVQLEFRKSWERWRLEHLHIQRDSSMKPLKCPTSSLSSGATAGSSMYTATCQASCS

For the compound `CC[C@H](C)[C@H](NC(=O)[C@H](Cc1ccccc1)NC(=O)[C@H](CCCCNC(=O)COCCOCCNC(=O)COCCOCCNC(=O)CC[C@H](NC(=O)CCCCCCCCCOc1ccc(C(=O)O)cc1)C(=O)O)NC(=O)[C@H](CCCNC(=N)N)NC(=O)[C@H](C)NC(=O)[C@H](C)NC(=O)[C@H](CCC(N)=O)NC(=O)[C@H](CCC(=O)O)NC(=O)[C@H](CCC(=O)O)NC(=O)[C@H](CC(C)C)NC(=O)[C@H](Cc1ccc(O)cc1)NC(=O)[C@H](CO)NC(=O)[C@H](CO)NC(=O)[C@@H](NC(=O)[C@H](CC(=O)O)NC(=O)[C@H](CO)NC(=O)[C@@H](NC(=O)[C@H](Cc1ccccc1)NC(=O)[C@@H](NC(=O)CNC(=O)[C@H](CCC(=O)O)NC(=O)[C@H](C)NC(=O)[C@@H](N)Cc1c[nH]cn1)[C@@H](C)O)[C@@H](C)O)C(C)C)C(=O)N[C@@H](C)C(=O)N[C@@H](Cc1c[nH]c2ccccc12)C(=O)N[C@@H](CC(C)C)C(=O)N[C@H](C(=O)N[C@@H](CCCNC(=N)N)C(=O)NCC(=O)N[C@@H](CCCNC(=N)N)C(=O)N[C@@H](CCCCNC(=O)COCCOCCNC(=O)COCCOCCNC(=O)CC[C@H](NC(=O)CCCCCCCCCOc1ccc(C(=O)O)cc1)C(=O)O)C(=O)O)C(C)C` [Example 1, N^ε27-[2-[2-[2-[[2-[2-[2-[[(4S)-4-carboxy-4-[10-(4-carboxyphenoxy)decanoylamino]butanoyl]amino]ethoxy]ethoxy]acetyl]amino]ethoxy]ethoxy]acetyl], N^ε37-[2-[2-[2-[[2-[2-[2-[[(4S)-4-carboxy-4-[10-(4-carboxyphenoxy)decanoylamino]butanoyl]amino]ethoxy]ethoxy]acetyl]amino]ethoxy]ethoxy]acetyl]-[Glu^22,Arg^26,Lys^27,Arg^34,Lys^37]-GLP-1-(7-37)-peptide] (H-HAEGTFTSDVSSYLEEQAARK([AEEA-AEEA-γGlu-Decanoyl(10-(4-HOOC-PhO))])FIAWLVRGRK([AEEA-AEEA-γGlu-Decanoyl(10-(4-HOOC-PhO))])-OH; N-terminus and C-terminus assumed), the IC50 under setting [1] is 0.19 nM. For `CC[C@H](C)[C@H](NC(=O)[C@H](Cc1ccccc1)NC(=O)[C@H](CCCCNC(=O)COCCOCCNC(=O)COCCOCCNC(=O)CC[C@H](NC(=O)CCCCCCCCCCCCC(=O)O)C(=O)O)NC(=O)[C@H](CCCNC(=N)N)NC(=O)[C@@H](NC(=O)[C@H](CCCCNC(=O)COCCOCCNC(=O)COCCOCCNC(=O)CC[C@H](NC(=O)CCCCCCCCCCCCC(=O)O)C(=O)O)NC(=O)[C@H](CCC(N)=O)NC(=O)[C@H](CCC(=O)O)NC(=O)[C@H](CCC(=O)O)NC(=O)[C@H](CC(C)C)NC(=O)[C@H](Cc1ccc(O)cc1)NC(=O)[C@H](CO)NC(=O)[C@H](CO)NC(=O)[C@@H](NC(=O)[C@H](CC(=O)O)NC(=O)[C@H](CO)NC(=O)[C@@H](NC(=O)[C@H](Cc1ccccc1)NC(=O)[C@@H](NC(=O)CNC(=O)[C@H](CCC(=O)O)NC(=O)[C@H](C)NC(=O)[C@@H](N)Cc1c[nH]cn1)[C@@H](C)O)[C@@H](C)O)C(C)C)C(C)C)C(=O)N[C@@H](C)C(=O)N[C@@H](Cc1c[nH]c2ccccc12)C(=O)N[C@@H](CC(C)C)C(=O)N[C@H](C(=O)NCC(=O)O)C(C)C` [Example 27, N^ε24-[2-[2-[2-[[2-[2-[2-[[(4S)-4-carboxy-4-(13-carboxytridecanoylamino)butanoyl]amino]ethoxy]ethoxy]acetyl]amino]ethoxy]ethoxy]acetyl], N^ε27-[2-[2-[2-[[2-[2-[2-[[(4S)-4-carboxy-4-(13-carboxytridecanoylamino)butanoyl]amino]ethoxy]ethoxy]acetyl]amino]ethoxy]ethoxy]acetyl]-[Glu^22,Lys^24, Val^25, Arg^26, Lys^27,Gly^34]-GLP-1-(7-34)-peptide] (H-HAEGTFTSDVSSYLEEQK([AEEA-AEEA-γGlu-C14 diacid])VRK([AEEA-AEEA-γGlu-C14 diacid])FIAWLVG-OH), the IC50 under setting [2] was over 1000 nM. On to `CC[C@H](C)[C@H](NC(=O)[C@H](Cc1ccccc1)NC(=O)[C@H](CCCCNC(=O)COCCOCCNC(=O)COCCOCCNC(=O)CC[C@H](NC(=O)CCCCCCCCCOc1ccc(C(=O)O)cc1)C(=O)O)NC(=O)[C@H](CCCNC(=N)N)NC(=O)[C@@H](NC(=O)[C@H](CCCCNC(=O)COCCOCCNC(=O)COCCOCCNC(=O)CC[C@H](NC(=O)CCCCCCCCCOc1ccc(C(=O)O)cc1)C(=O)O)NC(=O)[C@H](CCC(N)=O)NC(=O)[C@H](CCC(=O)O)NC(=O)[C@H](CCC(=O)O)NC(=O)[C@H](CC(C)C)NC(=O)[C@H](Cc1ccc(O)cc1)NC(=O)[C@H](CO)NC(=O)[C@H](CO)NC(=O)[C@@H](NC(=O)[C@H](CC(=O)O)NC(=O)[C@H](CO)NC(=O)[C@@H](NC(=O)[C@H](Cc1ccccc1)NC(=O)[C@@H](NC(=O)CNC(=O)[C@H](CCC(=O)O)NC(=O)[C@H](C)NC(=O)[C@@H](N)Cc1c[nH]cn1)[C@@H](C)O)[C@@H](C)O)C(C)C)C(C)C)C(=O)N[C@@H](C)C(=O)N[C@@H](Cc1c[nH]c2ccccc12)C(=O)N[C@@H](CC(C)C)C(=O)N[C@H](C(=O)N[C@@H](CCCNC(=N)N)C(=O)NCC(=O)N[C@@H](CCCNC(=N)N)C(=O)NCC(=O)O)C(C)C` [Example 28, N^ε24-[2-[2-[2-[[2-[2-[2-[[(4S)-4-carboxy-4-[10-(4-carboxyphenoxy)decanoylamino]butanoyl]amino]ethoxy]ethoxy]acetyl]amino]ethoxy]ethoxy]acetyl], N^ε27-[2-[2-[2-[[2-[2-[2-[[(4S)-4-carboxy-4-[10-(4-carboxyphenoxy)decanoylamino]butanoyl]amino]ethoxy]ethoxy]acetyl]amino]ethoxy]ethoxy]acetyl]-[Glu^22,Lys^24,Val^25,Arg^26,Lys^27,Arg^34]-GLP-1-(7-37)-peptide] (H-HAEGTFTSDVSSYLEEQK([AEEA-AEEA-γGlu-Decanoyl(10-(4-HOOC-PhO))])VRK([AEEA-AEEA-γGlu-Decanoyl(10-(4-HOOC-PhO))])FIAWLVRGRG-OH; N-terminus and C-terminus assumed), for which the IC50 turned out to be 29 nM under setting [2] and 0.2 nM under setting [1].
